The source of these data is patent publication US20230165970A1, “COMPOSITIONS AND METHODS FOR THE TREATMENT OF BACTERIAL INFECTIONS” (priority 2017, published 2023).

SMILES strings stand for the structures. In brackets after ≈: the same amount, converted by molar mass. Read-outs that look alike come from different tables or passages of the source. *1 amine or outer side, *2 acyl side, *3 side chain or, on linkers, in order; H or OH if unused. Where a SMILES comes first, the peptide text is derived from it. Bridges are numbered along the chain shown (N, C = ends). Roman numbers before positions name the chains, in order. [ ]: non-standard residue; d: D form. The star is where a group is joined. X5 = C#CCOCCOCCOCCOCCN1C[C@@H](C(=O)[*:1])[C@H](C(=O)[*:2])C1; X2 = O=C([C@@H](N[*:1])[C@H](O)CCC(F)(F)F)[*:2]; Propargyl(OCH2CH2)4CO = C#CCOCCOCCOCCOCCC(=O)*; X3 = CCCCC[C@@H](O)[C@H](N[*:1])C(=O)[*:2]; azaDab = NCCN(N[*:1])C(=O)[*:2]; Aoc(2) = CCCCCC[C@H](N)C(=O)O; hLeu = CC(C)CC[C@H](N)C(=O)O; Nle = CCCC[C@H](N)C(=O)O; Dab = NCC[C@H](N)C(=O)O; azaGly = NNC(=O)O

For one experiment, the system named is Sa RN. It counts as cell-based.
For a further experiment, the system named is Ab 19606 (COLhet^R). Type of experiment: cell-based, Acinetobacter baumannii. Conditions: media CA-MHB.
The subject of a further experiment is LPS from E. coli O111:B4. Description: LPS binding/neutralization by Limulus Amebocyte Lysate (LAL) assay. Type of experiment: biochemical. Conditions: LPS 1-10,000 ng/mL, test article 0.25-10 μM; sum of AUCs relative to maximal AUC (Table 15). The essentials:
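E. coli O111:B4 LPS (1-10,000 ng/mL) preincubated with test article (0.25-10 μM) for 5 min at 37° C., then LAL reagent added and absorbance at 405 nm read after 15 min. % neutralization relative to PBS and LPS-only controls; single value from summed dose-response AUCs versus maximal achievable AUC ×100.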

The next experiment deals with Ec 2469. Type of experiment: cell-based, Escherichia coli. The procedure, abridged:
(§1)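 MHA colonies → 0.85% saline, OD600 ~0.1; 2-fold serial dilutions ×8 or ×12; conjugates in RPMI B; 35° C, 16-20 h. Pa LES431 ± 50% heat-inactivated FBS.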

The subject of another experiment is Ec 25922. Type of experiment: cell-based, Escherichia coli. Conditions: for MIC in RPMI EC 25922: pH 7.4. The procedure, abridged: as §1
In another experiment the test system is Kp 43816. It counts as cell-based, Klebsiella pneumoniae. The essentials:
as §1

The next experiment deals with Kp 6951 (COL^R). It counts as cell-based, Klebsiella pneumoniae. Conditions: Kp 6951 (COL^R); media CA-MHB. The procedure, abridged:
as §1

Another experiment concerns Kp 10031. Type of experiment: cell-based, Klebsiella pneumoniae. The essentials: as §1
In a further experiment the test system is Ec AR0349 (mcr-1, COL^R). It counts as cell-based, Escherichia coli. The settings on record: media CA-MHB.
Another experiment has as its system Ec 25922 64X-1 (COL^R). Type of experiment: cell-based, Escherichia coli. Conditions: media CA-MHB.

Take `C#CCOCCOCCOCCOCCC(=O)N[C@@H](CCC(C)C)C(=O)N[C@@H](CCN)C(=O)N[C@H](C(=O)NNC(=O)N[C@H]1CCNC(=O)[C@H]([C@@H](C)O)NC(=O)[C@H](CCN)NC(=O)[C@H](CCN)NC(=O)[C@H](CC(C)C)NC(=O)[C@@H](Cc2ccccc2)NC(=O)[C@H](CCN)NC1=O)[C@H](O)CCCCC` [Int-116] ({Propargyl(OCH2CH2)4CO}-[hLeu][Dab][X3][azaGly][Dab][Dab][dF]L[Dab][Dab]T; lactam 5-C): the MIC in the experiment with Sa RN is over 128 µg/mL; against Ab 19606 (COLhet^R), 1 µg/mL (≈ 0.691 µM); with Ec 2469, 2 µg/mL (≈ 1.38 µM); against Ec 25922, 2 µg/mL (≈ 1.38 µM); with Kp 43816 it was 2 µg/mL (≈ 1.38 µM); in the experiment on Kp 6951 (COL^R) it was over 128 µg/mL. Moreover, the MIC is 2 µg/mL (≈ 1.38 µM) in the experiment with Kp 10031; 8 µg/mL (≈ 5.53 µM) in the experiment with Ec AR0349 (mcr-1, COL^R); 64 µg/mL (≈ 44.2 µM) with Ec 25922 64X-1 (COL^R). For the same compound, the “% LPS neutralization” value in the experiment on LPS from E. coli O111:B4 is 33.2%. Besides, in the experiment with Ec 25922, the “MIC in RPMI EC 25922” value was found to be 1.05 µg/mL (≈ 0.726 µM).

On to `C#CCOCCOCCOCCOCCC(=O)N[C@@H](CCCCCC)C(=O)N[C@@H](CCN)C(=O)N[C@H](C(=O)N[C@@H](CCN)C(=O)N[C@H]1CCNC(=O)[C@H]([C@@H](C)O)NC(=O)[C@H](CCN)NC(=O)[C@H](CCN)NC(=O)[C@H](CC(C)C)NC(=O)[C@@H](Cc2ccccc2)NC(=O)[C@H](CCN)NC1=O)[C@H](O)CCC(F)(F)F` [Int-118] ({Propargyl(OCH2CH2)4CO}-[Aoc(2)][Dab][X2][Dab][Dab][Dab][dF]L[Dab][Dab]T; lactam 5-C), for which the MIC with Sa RN was over 128 µg/mL; against Ec 2469 it was 1 µg/mL (≈ 0.654 µM); against Ec 25922, 1 µg/mL (≈ 0.654 µM); against Kp 43816, 2 µg/mL (≈ 1.31 µM); against Kp 10031, 2 µg/mL (≈ 1.31 µM). Also, in the experiment with LPS from E. coli O111:B4, the “% LPS neutralization” value came out at 59.0%. Besides, the “MIC in RPMI EC 25922” value with Ec 25922 is 0.95 µg/mL (≈ 0.621 µM).

`C#CCOCCOCCOCCOCCN1C[C@@H](C(=O)N[C@@H](CCCC)C(=O)N[C@@H](CCN)C(=O)N[C@H](C(=O)NNC(=O)N[C@H]2CCNC(=O)[C@H]([C@@H](C)O)NC(=O)[C@H](CCN)NC(=O)[C@H](CCN)NC(=O)[C@H](CC(C)C)NC(=O)[C@@H](Cc3ccccc3)NC(=O)[C@H](CCN)NC2=O)[C@@H](C)O)[C@H](C(=O)N[C@@H](CCCC)C(=O)N[C@@H](CCN)C(=O)N[C@H](C(=O)NNC(=O)N[C@H]2CCNC(=O)[C@H]([C@@H](C)O)NC(=O)[C@H](CCN)NC(=O)[C@H](CCN)NC(=O)[C@H](CC(C)C)NC(=O)[C@@H](Cc3ccccc3)NC(=O)[C@H](CCN)NC2=O)[C@@H](C)O)C1` [Int-120] (I: [Nle][Dab]T[azaGly][Dab][Dab][dF]L[Dab][Dab]T / II: [Nle][Dab]T[azaGly][Dab][Dab][dF]L[Dab][Dab]T; lactam I:5-I:C, II:5-II:C; linker I:N-II:N via X5): the MIC against Sa RN is over 128 µg/mL; against Ab 19606 (COLhet^R), 2 µg/mL (≈ 0.767 µM); in the experiment on Ec 2469 (Ec 2469, media CA-MHB), 2 µg/mL (≈ 0.767 µM); in the experiment with Ec 25922 (Ec 25922 + FBS (50%, heat-inactivated), media CA-MHB), 0.25 µg/mL; in the experiment with Ec 25922 (Ec 25922, media CA-MHB), 2 µg/mL (≈ 0.767 µM); against Kp 43816 (Kp 43816, media CA-MHB), 2 µg/mL (≈ 0.767 µM). For the same compound, the MIC came out at 8 µg/mL (≈ 3.07 µM) against Kp 6951 (COL^R); 2 µg/mL (≈ 0.767 µM) against Kp 10031 (Kp 10031, media CA-MHB); 2 µg/mL (≈ 0.767 µM) against Ec AR0349 (mcr-1, COL^R); 2 µg/mL (≈ 0.767 µM) against Ec 25922 64X-1 (COL^R). Further, the “% LPS neutralization” value with LPS from E. coli O111:B4 is 68.0%.

As for `C#CCOCCOCCOCCOCCC(=O)N[C@@H](CCC(C)C)C(=O)N[C@@H](CCN)C(=O)N[C@H](C(=O)NN(CCN)C(=O)N[C@H]1CCNC(=O)[C@H]([C@@H](C)O)NC(=O)[C@H](CCN)NC(=O)[C@H](CCN)NC(=O)[C@H](CC(C)C)NC(=O)[C@@H](Cc2ccccc2)NC(=O)[C@H](CCN)NC1=O)[C@@H](C)O` [Int-127] ({Propargyl(OCH2CH2)4CO}-[hLeu][Dab]T[azaDab][Dab][Dab][dF]L[Dab][Dab]T; lactam 5-C), the MIC in the experiment with Sa RN is over 128 µg/mL; with Ab 19606 (COLhet^R) it was 2 µg/mL (≈ 1.39 µM); against Ec 2469 it was 1 µg/mL (≈ 0.697 µM); in the experiment on Ec 25922, 1 µg/mL (≈ 0.697 µM); against Kp 43816, 1 µg/mL (≈ 0.697 µM); against Kp 6951 (COL^R) it was over 128 µg/mL. The MIC in the experiment with Kp 10031 amounted to 1 µg/mL (≈ 0.697 µM); with Ec AR0349 (mcr-1, COL^R) it was 8 µg/mL (≈ 5.58 µM); against Ec 25922 64X-1 (COL^R), 64 µg/mL (≈ 44.6 µM). In addition, the “% LPS neutralization” value in the experiment on LPS from E. coli O111:B4 came to 13.0%. For the same compound, the “MIC in RPMI EC 25922” value against Ec 25922 was 1.00 µg/mL (≈ 0.697 µM).

Consider `C#CCOCCOCCOCCOCCC(=O)N[C@@H](CCCCCC)C(=O)N[C@@H](CCN)C(=O)N[C@H](C(=O)NN(CCN)C(=O)N[C@H]1CCNC(=O)[C@H]([C@@H](C)O)NC(=O)[C@H](CCN)NC(=O)[C@H](CCN)NC(=O)[C@H](CC(C)C)NC(=O)[C@@H](Cc2ccccc2)NC(=O)[C@H](CCN)NC1=O)[C@@H](C)O` [Int-129] ({Propargyl(OCH2CH2)4CO}-[Aoc(2)][Dab]T[azaDab][Dab][Dab][dF]L[Dab][Dab]T; lactam 5-C), for which the MIC against Sa RN was over 128 µg/mL; against Ec 2469, 2 µg/mL (≈ 1.38 µM); with Ec 25922, 1 µg/mL (≈ 0.691 µM); in the experiment with Kp 43816, 2 µg/mL (≈ 1.38 µM); against Kp 10031, 2 µg/mL (≈ 1.38 µM). In addition, in the experiment on LPS from E. coli O111:B4, the “% LPS neutralization” value stood at 23.0%.
